Drawing on PubChem BioAssay AID743394 (Broad Institute, 2014), this text covers activation for 75 compounds.

Each structure is given as a SMILES string. Active and inactive are the calls of the source.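 The calls were made as follows: active = 40% activation versus positive control reached by fitted dose-response curve at or below highest valid tested dose; inconclusive = poor fit quality, or flat fit with activation between 30% and 70%; inactive = the rest.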

The nature of one experiment: inactive X chromosome reactivation in XiGFP fibroblasts, dose response, imaging, 68-5-11 mouse fibroblasts, GFP, cherry-pick (AID 743394).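 Also: sensitizer 5-aza-dC present in the wells at 0.5 mM final.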 The note with it: 68-5-11 mouse fibroblast XiGFP reporter, % GFP-positive imaging, 3 d; at 19.5 µM (top of the series).
Take `OCC[n+]1c2ccccc2nc2ccc(N3CCOCC3)cc21`: the activation was 0.02% (inactive).

Still in this experiment, the particulars now being: 68-5-11 mouse fibroblast XiGFP reporter, % GFP-positive imaging, 3 d; at 19.5 µM (top of the series); cells co-treated with 5-aza-dC sensitizer; scaled: neutral wells 0, ellipticine wells 100.
Turning to `C[C@H]1CN([C@@H](C)CO)C(=O)c2ccccc2-c2ccccc2CO[C@H]1CN(C)C(=O)[C@@H](Cc1ccccc1)N(C)C`, the activation was 0% (inactive).
Still for that read-out and setting: in the case of `CC(=O)Oc1ccc2c(=O)c(-c3ccccc3)coc2c1` it was 0.086% (inactive); in that of `CC(=Nc1ccc(Cl)cc1N)c1c(O)cc(C)oc1=O`, -0.044% (inactive); in that of `O=C1c2ccccc2C(=O)C1c1ccccc1`, -0.024% (inactive).
Turning to `C[C@@H]1CN([C@@H](C)CO)C(=O)c2cc(NS(=O)(=O)c3cn(C)cn3)ccc2O[C@@H](C)CCCCO[C@H]1CN(C)C(=O)c1ccccc1`, the activation is 0.016% (inactive).
Turning to `COc1cc(/C=C/c2ccc3cccc(O)c3n2)ccc1O`, the activation is 3.08% (inactive).
On to `COc1ccc(CCNC(=O)c2ccc([N+](=O)[O-])cc2)cc1`, for which the activation is -0.024% (inactive).
Regarding `CCCCC(=O)N(C)c1c(CC)nc2c(OCC(=O)c3ccc(F)cc3)cccn12`, the activation is -0.039% (inactive).
Still for that read-out and setting: then `CCCCn1nnnc1C(c1ccccc1)N1CCN(c2ccc(C)cc2)CC1` (stereo not given), with 0.03% (inactive); and `C/C=C/Cn1c(SCCCc2ccccc2)nc2c1c(=O)[nH]c(=O)n2C`, with -0.024% (inactive); and `COc1ccc(Cl)cc1C(=O)Nc1ccccc1N1CCCCC1`, with 1.48% (inactive).
As to `COc1cccc(-c2ccc(C3[C@@H]4CN(C(=O)C5CCCCC5)C[C@H]3N4)cc2)c1` (stereo not given in full), the activation was 2.76% (inactive).
Turning to `O=C(Nc1c(Cl)cccc1Cl)Oc1cccc2cccnc12`, the activation was -0.037% (inactive).
Same read-out and setting: in the case of `COc1ccccc1-c1cc(C(=O)N2CCCc3ccccc32)no1` it was 0.179% (inactive); in that of `Cc1ccc(-c2nc3ccc(Br)cn3c2Cc2ccccc2C(F)(F)F)cc1`, 0.06% (inactive); in that of `COc1ccc2c3c(n(C)c2c1)[C@@H](CO)N(C)CC31CN(C(=O)NC(C)C)C1`, -0.012% (inactive).
On to `CC(C)c1ccc(CN2CCN(C(=O)CSc3nnnn3C3CC3)CC2)cc1`, for which the activation was 0.2% (inactive).
Still for that read-out and setting: then `CCn1c(Cl)c(C=O)s/c1=N\S(=O)(=O)c1ccccc1`, with 1.44% (inactive); and `Cc1[nH]c2ccccc2c1/C=N/Nc1nc2ccccc2[nH]1`, with -0.075% (inactive).
For the compound `Cc1cccc(C(=O)NCc2ccc(S(N)(=O)=O)cc2)c1[N+](=O)[O-]`, the activation is 0.077% (inactive).
With `Cc1c(CN2CCCC(C(=O)c3cccc(OC(C)C)c3)C2)c(=O)n(-c2ccccc2)n1C` (stereo not given), the activation is -0.016% (inactive).
Consider `C/C(CC(=O)Nc1ccc(C)c(Cl)c1)=N\NC(=O)Cc1ccccc1`, for which the activation is -0.06% (inactive).
Regarding `CN(Cc1nccn1C)C(=O)CC1C(=O)NCCN1CC(c1ccccc1)c1ccccc1` (stereo not given), the activation is 0.001% (inactive).
In the case of `COc1ccccc1NC(=O)N[C@H]1C=C[C@@H](CC(=O)N[C@@H](C)c2ccccc2)O[C@@H]1CO`, the activation was -0.011% (inactive).
Turning to `COc1cccc(CNC(=O)c2ccc(NC(=O)CC3SC(N4CCCC4)=NC3=O)cc2)c1` (stereo not given), the activation is 0.01% (inactive).
As for `CC(=O)Nc1ccc(NS(=O)(=O)c2ccc3c(c2)oc(=O)n3C)cc1`, the activation was 5.23% (inactive).
In the case of `CO[C@H]1CN(C)C(=O)c2ccc(NC(=O)Cc3ccccc3)cc2OC[C@@H](C)N(C)C[C@H]1C`, the activation was -0.035% (inactive).
Take `Cc1ccc(N(C)C(=O)C2CCN(S(=O)(=O)c3ccc4c(c3)oc(=O)n4C)CC2)cc1`: the activation was 0.016% (inactive).
Same read-out and setting: in the case of `O=C(OCc1cccc(F)c1)c1ccc2c(=O)n3c(nc2c1)CCC3` it was 1.02% (inactive); in that of `Cc1ccc(-c2nc(CS(=O)CC(=O)NCCCN3CC(C)CC(C)C3)c(C)o2)cc1` (stereo not given), 0.4% (inactive).
Still for that read-out and setting: then `Cc1ccc(-c2ccc3c(c2)O[C@@H](CN(C)Cc2ccncc2)[C@@H](C)CN([C@@H](C)CO)S3(=O)=O)cc1`, with 0% (inactive); and `O=C(Nc1ccc(F)cc1)N1CC(=O)N2[C@H](CO)[C@H](c3ccc(C#Cc4ccc(F)cc4)cc3)[C@@H]2C1`, with -0.031% (inactive).
On to `COc1ccccc1N(C)c1cc2c(c3c1ccn3C)C1CCC2C1` (stereo not given), for which the activation was 0.146% (inactive).
For `CCOC(=O)c1ccc(NC(=O)c2ccnn2C)cc1`, the activation is -0.044% (inactive).
Still for that read-out and setting: then `O=C(NC1=NN(c2ccccc2)CC1)Nc1ccccc1F`, with -0.003% (inactive); and `COC(=O)c1ccc(-n2c(C)cc(C(=O)COC(=O)C3=COCCO3)c2C)cc1`, with -0.033% (inactive).
`CC1CC(C)CN(C(=O)C(C)N2CCN(S(=O)(=O)c3ccccc3F)CC2)C1` (stereo not given): the activation was 0.412% (inactive).
The same measure, in the same setting: then `COc1ccc2c3c(n(C)c2c1)[C@H](CO)N(C(=O)CN1CCOCC1)CC31CCN(C(=O)Nc2cccc(F)c2)CC1`, with -0.035% (inactive).
On the same count and under the same terms, in the case of `CC(=O)N/C(N)=N/c1nc(=O)c2ccccc2s1` it was -0.044% (inactive).
For the compound `Cc1ccc(S(=O)(=O)c2ccc([N+](=O)[O-])cn2)cc1`, the activation was -0.05% (inactive).
Consider `Cc1ccc(-c2csc3nc4c5ccccc5c(NCCCN(C)C)nn4c(=O)c23)cc1`, for which the activation is -0.05% (inactive).
With `COc1ccc(C2=C(c3ccccc3)OC(OC)c3cc(F)ccc32)cn1` (stereo not given), the activation is 0.027% (inactive).
Turning to `COc1ccc2c3c(n(C)c2c1)[C@@H](CO)N(Cc1ccccc1OC)CC31CCN(C)CC1`, the activation was 0.213% (inactive).
Still for that read-out and setting: in the case of `COc1ccc(CN(C)C[C@H]2OCCCC[C@H](C)Oc3ccc(NC(=O)Nc4ccc(F)cc4)cc3C(=O)N([C@H](C)CO)C[C@H]2C)cc1` it was 0.981% (inactive); in that of `O=c1c(Cl)c(Cl)cnn1Cc1nnc(-c2ccccc2Br)o1`, -0.053% (inactive); in that of `CCOC(=O)c1ccccc1NC(=O)COC(=O)C1CCN(S(=O)(=O)c2ccccc2C(=O)OC)CC1`, 1.06% (inactive).
As to `CC(Sc1nnc(Cc2ccccc2)o1)C(=O)Nc1ccccc1[N+](=O)[O-]` (stereo not given), the activation was -0.032% (inactive).
Regarding `C[C@H](CO)N1C[C@H](C)[C@H](CN(C)S(=O)(=O)c2ccccc2)Oc2ccc(NS(=O)(=O)c3ccc(Cl)cc3)cc2C1=O`, the activation was 0.163% (inactive).
On the same count and under the same terms, then `COc1ccc(N2CCN(C(=O)c3cc4c(s3)-c3ccccc3OC4)CC2)cc1`, with 0.457% (inactive).
The same measure, in the same setting: in the case of `Cc1cc(=O)[nH]c(N/N=C/c2cc(C)n(CC(F)(F)F)c2C)n1` it was 0.184% (inactive); in that of `Cc1ccc2[nH]c(C(=O)O)c(NC(=O)[C@@H]3C[C@@H]3c3ccccc3)c2c1`, -0.035% (inactive); in that of `C/C(=N\NC(=O)CC1N=C(Cc2ccccc2)NNC1=O)c1ccc(Br)cc1` (stereo not given), 0.028% (inactive).
Same read-out and setting: then `C[C@H](NC(=O)C[C@H]1CC[C@@H](NC(=O)Cc2ccccn2)[C@@H](CO)O1)c1ccccc1`, with 0.043% (inactive).
For the compound `Cc1noc(C)c1S(=O)(=O)Nc1ccc2c(c1)C(=O)N([C@H](C)CO)C[C@H](C)[C@H](CN(C)C(=O)Nc1ccc(F)cc1)OCCCC[C@H](C)O2`, the activation is 0.022% (inactive).
In the case of `CCc1ccc(NS(=O)(=O)c2ccc3[nH]cc(C(=O)N4CCc5ccccc54)c(=O)c3c2)cc1`, the activation was -0.01% (inactive).
Consider `COc1ccccc1/C=C/C(=O)OCCCN(C)C`, for which the activation is 0.018% (inactive).
With `COc1ccc(CNC(=O)c2ccc(-c3cnn(C)c3)c3ccoc23)cc1OC`, the activation is -0.037% (inactive).
`CCN(CC)S(=O)(=O)c1ccc(Cl)c(NC(=O)COC(=O)c2c(C)noc2C)c1`: the activation was 0.03% (inactive).
Consider `O=C1CSC(c2cccnc2)N1Cc1ccc(Cl)cc1Cl` (stereo not given), for which the activation is -0.022% (inactive).
Still for that read-out and setting: in the case of `COc1ccc(N2C(=O)C3CCCN3C2c2cccc(OC)c2)cc1` (stereo not given) it was 0.02% (inactive); in that of `C=C(C)c1cccc(C(C)(C)NC(=O)Nc2nnc(C(C)C)s2)c1`, -0.035% (inactive).
Same read-out and setting: then `O=C(NNC(=O)c1ccccc1Cl)c1ccccc1Cl`, with -0.034% (inactive).
In the case of `C[C@@H]1CN([C@H](C)CO)C(=O)c2cc(NC(=O)Nc3ccc4c(c3)OCO4)ccc2O[C@@H](C)CCCCO[C@@H]1CN(C)C(=O)Cc1ccccc1`, the activation was 0.577% (inactive).
As to `O=C(c1cnccn1)N1CC(=O)N2[C@H](CO)[C@@H](c3ccc(-c4cccc(F)c4)cc3)[C@@H]2C1`, the activation is -0.014% (inactive).
Same read-out and setting: in the case of `O=C(O)c1ccc(COc2ccccc2C=C2C(=O)c3ccccc3C2=O)cc1` it was 0.163% (inactive).
As to `CC(O)(c1ccccc1)c1nc(-c2ccncc2)cs1` (stereo not given), the activation is 0.105% (inactive).
Same read-out and setting: in the case of `C[C@H]1CN([C@@H](C)CO)S(=O)(=O)c2ccc(Br)cc2O[C@H]1CN(C)C(=O)c1cccnc1` it was -0.033% (inactive); in that of `Cc1ccc(-c2csc(NC(=O)c3cccc([N+](=O)[O-])c3C(=O)O)n2)cc1`, -0.047% (inactive).
On the same count and under the same terms, then `O=C(CNC(=O)c1ccccc1F)OCc1nc2ccccc2s1`, with -0.127% (inactive).
Same read-out and setting: in the case of `CN(C)CC(=O)N1CC2(C1)[C@@H](c1ccccc1)[C@H](CO)N2C(=O)C1CC1` it was -0.015% (inactive).
As for `CN1c2ccc(-c3ccc(C#N)cc3)cc2[C@@H]2[C@@H](CCN2C(=O)NC2CCCCC2)[C@H]1CO`, the activation was 0.002% (inactive).
As for `CCOC(=O)c1c(C)[nH]c(N=Nc2ccc(OC)cc2)c1C`, the activation was 1.01% (inactive).
With `Cc1ccccc1NC(=O)c1c(C)[nH]c(=S)c(C#N)c1-c1ccc(Cl)cc1`, the activation is 0.075% (inactive).

The same experiment, now with this note: 68-5-11 mouse fibroblast XiGFP reporter, % GFP-positive imaging, 3 d; at 21 µM (top of the series); cells co-treated with 5-aza-dC sensitizer; scaled: neutral wells 0, ellipticine wells 100.
In the case of `Cc1cccc(CN(C)C[C@@H]2Oc3ncc(C#Cc4ccccc4)cc3C(=O)N([C@H](C)CO)C[C@@H]2C)c1`, the activation was -0.035% (inactive).
